23 compounds from patent US20030229067A1, “Pyrrolopyrimidine A2b selective antagonist compounds, their synthesis and use” (priority 2001, published 2003) can be followed below.

For orientation: Ki means the dissociation constant of the complex between target and ligand, obtained from inhibition or displacement. A higher Ki goes with a looser hold on the target. Usually melting point stands for the temperature of the solid-liquid transition.

The target of the first data set is T1, human A2B receptor (Homo sapiens, UniProt P29275).
T1 construct: expressed in transfected cells; membranes prepared from the cells
T1 sequence (P29275 1-332): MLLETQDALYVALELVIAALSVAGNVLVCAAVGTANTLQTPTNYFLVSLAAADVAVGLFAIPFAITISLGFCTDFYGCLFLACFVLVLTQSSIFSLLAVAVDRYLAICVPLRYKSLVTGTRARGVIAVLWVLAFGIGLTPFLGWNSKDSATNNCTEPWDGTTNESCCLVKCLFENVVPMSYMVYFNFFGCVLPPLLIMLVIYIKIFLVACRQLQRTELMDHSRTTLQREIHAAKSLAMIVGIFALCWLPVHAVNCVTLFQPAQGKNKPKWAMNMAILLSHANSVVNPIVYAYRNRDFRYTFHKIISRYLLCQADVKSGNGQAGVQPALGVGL
The experiment in a line: Radioligand binding assay ([3H]-DPCPX competition), membranes of HEK293 stably expressing human A2B receptor. Conditions: [3H]-DPCPX competition binding. The text has this:
Materials. [^3H]—DPCPX [cyclopentyl-1,3-dipropylxanthine] (120 Ci/mmol) was purchased from New England Nuclear (Boston, Mass.). The adenosine deaminase and complete protease inhibitor cocktail tablets were purchased from Boehringer Mannheim Corp. (Indianapolis, Ind.). Cell culture reagents were from Life Technologies (Grass Island, N.Y.) except for serum that was from Hyclone (Logan, Utah).
Cell line. HEK293 stably expressing the human A2B receptor were used for radioligand binding assays. Cells were grown in DMEM Glutamax containing 10% FBS, 0.2 mg/ml G418 at 37° C. in 5% CO2/95% atmosphere.
Membrane Preparation. Cells were washed with cold PBS buffer twice, scraped off the plates, and centrifuged at 1000×g for 5 minutes. Cells were homogenized with ice-cold buffer of 5 mM Tris, pH 7.4, 5 mM EDTA, 5 mM EGTA, protease inhibitor cocktail tablets and incubated for 10 min on ice. The homogenate was centrifuged at 32,000×g for 30 min. The membranes were resuspended in buffer of 50 mM Tris, pH 7.4, 0.6 mM EDTA, 5 mM MgCl2, stored at −80° C. until use. Protein concentration was determined by the methods of Bradford.
Radioligand binding assay. Membranes were homogenized in buffer containing 10 mM HEPES-KOH, pH 7.4 containing 1.0 mM EDTA; 2 U/ml adenosine deaminase; and 0.1 mM Benzamidine and incubated for 30 min at room temperature. Dissociation constants of radioligand (Kd values) and maximum binding sites (Bmax) were determined in saturation binding experiments. Saturation binding assays were carried out in a reaction mixture containing 50 μl of membrane suspension, 25 μl of 4% DMSO, 25 μl of increasing amounts of radioligand, [^3H]—DPCPX (final concentration 1-200 nM). […] Nonspecific binding was measured in the presence of […] NECA. Compounds were dissolved in
DMSO and then diluted with 4% DMSO; the final maximum DMSO concentrations were 1%. […] Reactions were terminated by rapid filtration over GF/C filters using a cell harvester. The filters were washed ten times with 0.4 ml of ice-cold buffer containing 10 mM HEPES-KOH, pH 7.4. The filters were dried, covered with scintillation fluid and counted with a TopCount.
`CC(=O)NCCNc1nc(-c2ccccc2)nc2[nH]c(COC3CCN(CCc4ccccc4Cl)CC3)cc12` [17.7, N-[2-(6-{1-[2-(2-Chlorophenyl)ethyl]piperidin-4-yloxymethyl}-2-phenyl-7H-pyrrolo[2,3-d]pyrimidin-4-ylamino)ethyl]acetamide]: the inhibitory constant (Ki) came to 5 nM.

Staying with this data set, now noted: binding assays, A2B vs A1, A2A, A3.
On to `CC(=O)NCCNc1nc(-c2ccccc2)nc2[nH]c(C(=O)N3CCN(c4ccc(Cl)cc4)CC3)cc12` [26.71, N-(2-{6-[4-(4-Chlorophenyl)-piperazine-1-carbonyl]-2-phenyl-7H-pyrrolo[2,3-d]pyrimidin-4-ylamino}-ethyl)-acetamide], for which the “receptor profile in words (selectivity listing)” value was “A1/A2B dual antagonist”.

Still in this data set, the particulars now being: fold selectivity A2B over A1, A2A and A3 receptors, binding assays.
Regarding `CC(=O)NCCNc1nc(-c2ccccc2)nc2[nH]c(COC3CCN(CCc4ccccc4Cl)CC3)cc12` [17.7, N-[2-(6-{1-[2-(2-Chlorophenyl)ethyl]piperidin-4-yloxymethyl}-2-phenyl-7H-pyrrolo[2,3-d]pyrimidin-4-ylamino)ethyl]acetamide], the “selectivity for the A2B receptor relative to the A1, A2A, and A3 receptor” value is given as 26 ×.

For the compound `CC(=O)NCCNc1nc(-c2ccccc2)nc2[nH]c(COC3CCN(CCc4ccccc4Cl)CC3)cc12.CS(=O)(=O)O` [17.7.MsOH, N-[2-(-6-{1-[2-(2-Chlorophenyl)ethyl]piperidine-4-yloxymethyl}-2-phenyl-7H-pyrrolo[2,3-d]pyrimidin-4-ylamino)ethyl]acetamide methanesulfonic acid salt], the “selectivity for the A2B receptor relative to the A1, A2A, and A3 receptor” value came out at 24 ×.

For the compound `CC(=O)NCCNc1nc(-c2ccccc2)nc2[nH]c(C(=O)N3CCN(c4ccc(Cl)cc4)CC3)cc12` [26.71, N-(2-{6-[4-(4-Chlorophenyl)-piperazine-1-carbonyl]-2-phenyl-7H-pyrrolo[2,3-d]pyrimidin-4-ylamino}-ethyl)-acetamide], the “selectivity for the A2B receptor relative to the A1, A2A, and A3 receptor” value is reported as 82 ×.

For the compound `CC(=O)NCCNc1nc(-c2ccccc2)nc2[nH]c(C(=O)N3CCN(CCCc4ccc(Cl)cc4)CC3)cc12` [26.135, N-[2-(6-{4-[3-(4-Chlorophenyl)-propyl]-piperazine-1-carbonyl}-2-phenyl-7H-pyrrolo[2,3-d]pyrimidin-4-ylamino)-ethyl]-acetamide], the “selectivity for the A2B receptor relative to the A1, A2A, and A3 receptor” value was determined as 19 ×.

On to `CC(=O)NCCNc1nc(-c2ccccc2)nc2[nH]c(C(=O)N3CCN(CCCc4ccc(Cl)cc4)CC3)cc12.CS(=O)(=O)O` [26.135.MsOH, N-[2-(6-{4-[3-(4-Chlorophenyl)-propyl]-piperazine-1-carbonyl}-2-phenyl-7H-pyrrolo[2,3-d]pyrimidin-4-ylamino)-ethyl]-acetamide methanesulfonate salt], for which the “selectivity for the A2B receptor relative to the A1, A2A, and A3 receptor” value was determined as 17 ×.

Regarding `CC(=O)NCCNc1nc(-c2ccccc2)nc2[nH]c(C(=O)N3CCC(C#N)(c4ccccc4Cl)CC3)cc12` [26.237, N-(2-{6-[4-(2-Chlorophenyl)-4-cyanopiperidine-1-carbonyl]-2-phenyl-7H-pyrrolo[2,3-d]pyrimidin-4-ylamino}-ethyl)-acetamide], the “selectivity for the A2B receptor relative to the A1, A2A, and A3 receptor” value was 57 ×.

Test system in another data set: not given
Assay: not given
Conditions: not given
Consider `CC(=O)NCCNc1nc(-c2ccccc2)nc2[nH]c(C(=O)N3CCC(c4ccccc4)(c4ccccc4)CC3)cc12` [26.25, N-{2-[6-(4,4-Diphenylpiperidine-1-carbonyl)-2-phenyl-7H-pyrrolo[2,3-d]pyrimidin-4-ylamino]-ethyl}-acetamide], for which the melting point was in the range of 254 to 256 °C.

For `CC(=O)NCCNc1nc(-c2ccccc2)nc2[nH]c(C(=O)N3CCCC(c4ccccc4)(c4ccccc4)C3)cc12` [26.26, N-{2-[6-(3,3-Diphenylpiperidine-1-carbonyl)-2-phenyl-7H-pyrrolo[2,3-d]pyrimidin-4-ylamino]-ethyl}-acetamide], the melting point was 156 to 159 °C (dec.).

Compound `COC1(c2ccccc2)CCN(C(=O)c2cc3c(NCCNC(C)=O)nc(-c4ccccc4)nc3[nH]2)CC1` [26.27, N-{2-[6-(4-Methoxy-4-phenylpiperidine-1-carbonyl)-2-phenyl-7H-pyrrolo[2,3-d]pyrimidin-4-ylamino]-ethyl}-acetamide] returned a melting point of 135 to 138 °C.

As for `CC(=O)NCCNc1nc(-c2ccccc2)nc2[nH]c(C(=O)N3CCC(Cc4ccc(F)cc4)CC3)cc12` [26.28, N-(2-{6-[4-(4-Fluorobenzyl)-piperidine-1-carbonyl]-2-phenyl-7H-pyrrolo[2,3-d]pyrimidin-4-ylamino}-ethyl)-acetamide], the melting point was 283 to 284 °C (dec.).

Turning to `CC(=O)NCCNc1nc(-c2ccccc2)nc2[nH]c(C(=O)N3CCC(C(O)c4ccc(F)cc4)CC3)cc12` (stereo not shown) [26.29], the melting point was 135 to 145 °C (dec.).

As for `CC(=O)NCCNc1nc(-c2ccccc2)nc2[nH]c(C(=O)N3C[C@@H](C)N(CCCc4ccccc4)C[C@@H]3C)cc12` [26.30], the melting point was 98 to 100 °C.

The compound `CC(=O)NCCNc1nc(-c2ccccc2)nc2[nH]c(C(=O)N3C[C@@H](C)N(Cc4ccccc4)[C@@H](C)C3)cc12` [26.32] yielded a melting point of 196 to 198 °C.

With `CC(=O)NCCNc1nc(-c2ccccc2)nc2[nH]c(C(=O)N3C[C@@H](C)N(CCc4ccccc4)[C@@H](C)C3)cc12` [26.33, N-{2-[6-(cis-3,5-Dimethyl-4-phenethylpiperazine-1-carbonyl)-2-phenyl-7H-pyrrolo[2,3-d]pyrimidin-4-ylamino]-ethyl}-acetamide], the melting point was 110 to 115 °C (dec.).

For `CC(=O)NCCNc1nc(-c2ccccc2)nc2[nH]c(C(=O)N3CCN(c4ccccn4)CC3)cc12` [26.35, N-{2-[2-Phenyl-6-(4-pyridin-2-yl-piperazine-1-carbonyl)-7H-pyrrolo[2,3-d]pyrimidin-4-ylamino]-ethyl}-acetamide], the melting point is 223 to 226 °C (dec.).

In the case of `CC(=O)NCCNc1nc(-c2ccccc2)nc2[nH]c(C(=O)N3CCCC(C)(c4ccccc4)C3)cc12` (stereo not shown) [26.36, N-{2-[6-(3-Methyl-3-phenylpiperidine-1-carbonyl)-2-phenyl-7H-pyrrolo[2,3-d]pyrimidin-4-ylamino]-ethyl}-acetamide], the melting point lay within 140 to 145 °C.

`CC(=O)NCCNc1nc(-c2ccccc2)nc2[nH]c(C(=O)N3CCN(c4ncccc4C(F)(F)F)CC3)cc12` [26.37, N-(2-{2-Phenyl-6-[4-(3-trifluoromethylpyridin-2-yl)-piperazine-1-carbonyl]-7H-pyrrolo[2,3-d]pyrimidin-4-ylamino}-ethyl)-acetamide]: the melting point was in the range of 225 to 228 °C.

`CC(=O)NCCNc1nc(-c2ccccc2)nc2[nH]c(C(=O)N3CCN(c4ccc(F)cc4)CC3)cc12` [26.38, N-(2-{6-[4-(4-Fluorophenyl)-piperazine-1-carbonyl]-2-phenyl-7H-pyrrolo[2,3-d]pyrimidin-4-ylamino}-ethyl)-acetamide] had a melting point of 234 °C.

For the compound `CC(=O)NCCNc1nc(-c2ccccc2)nc2[nH]c(C(=O)N3CCN(c4ccc(C(F)(F)F)cn4)CC3)cc12` [26.39, N-(2-{2-Phenyl-6-[4-(5-trifluoromethylpyridin-2-yl)-piperazine-1-carbonyl]-7H-pyrrolo[2,3-d]pyrimidin-4-ylamino}-ethyl)-acetamide], the melting point lay in the range of 270 to 273 °C.

The compound `COC1(c2ccc(F)cc2)CCN(C(=O)c2cc3c(NCCNC(C)=O)nc(-c4ccccc4)nc3[nH]2)CC1` [26.48, N-(2-{6-[4-(4-Fluorophenyl)4-methoxypiperidine-1-carbonyl]-2-phenyl-7H-pyrrolo[2,3-d]pyrimidin-4-ylamino}-ethyl)-acetamide] came in with a melting point of 134 to 137 °C.

Consider `CC(=O)NCCNc1nc(-c2ccccc2)nc2[nH]c(C(=O)N3CCC4(CC3)CCN(Cc3ccccc3)C4=O)cc12` [26.49, N-{2-[6-(2-Benzyl-1-oxo-2,8-diazaspiro[4.5]decane-8-carbonyl)-2-pheny1-7H-pyrrolo[2,3-d]pyrimidin-4-ylamino]-ethyl}-acetamide], for which the melting point is 140 °C (dec.).

For the compound `COC1(c2ccccc2Cl)CCN(C(=O)c2cc3c(NCCNC(=O)c4cc5c(NCCNC(C)=O)nc(-c6ccccc6)nc5[nH]4)nc(-c4ccccc4)nc3[nH]2)CC1` [26.51, 4-(2-Acetylaminoethylamino)-2-phenyl-7H-pyrrolo[2,3-d]pyrimidine-6-carboxylic acid (2-{6-[4-(2-chlorophenyl)-4-methoxypiperidine-1-carbonyl]-2-phenyl-7H-pyrrolo[2,3-d]pyrimidin-4-ylamino}-ethyl)-amide], the melting point was 180 to 185 °C (dec.).

`CC(=O)NCCNc1nc(-c2ccccc2)nc2[nH]c(C(=O)N3CCC(Cc4ccccc4)CC3)cc12` [26.54, N-{2-[6-(4-Benzylpiperidine-1-carbonyl)-2-phenyl-7H-pyrrolo[2,3-d]pyrimidin-4-ylamino]-ethyl}-acetamide] displayed a melting point of 260 to 261 °C.
